Assay results reported in patent US12280114B2, “Extraction of plant source “medicinal soup” and manual preparation of “herbal medicine” and related products” (BEIJING BAISHIHEKANG PHARMACEUTICAL TECHNOLOGY (BSJPHARMA) …, priority 2018, dated 2025).

Tests used:
[1] = test system: A549 cells; assay: Confocal fluorescence microscopy of lipid-delivered nucleic acid in A549 cells; type: cell-based, human; settings: boiling method; 6 hours
Description: (§1) […] Then the mixture was dropped into A549 cells, and after 6 hours of co-incubation, the samples were washed three times with PBS, fixed with 4% paraformaldehyde, washed three times with PBS, stained with Alexa Fluor® 488 phalloidin for 30 min, washed 3 times with PBS, and stained with DAPI for 5 min, washed with PBS, and then sealed.
as §1, with “Then,” for “Then”, “PBS washed,” for “washed with PBS,”

[2] = In vivo delivery of small RNA into mouse blood, stomach, small intestine and liver via gavage (RT-qPCR); settings: Example 11; 10 μL single lipid + sRNA 1 nmol each, heating method; 12 hours
Description: [Experimental method] 6-8 weeks old mice, 22-24 g, were raised in SPF room of the Animal Center of the Institute of Basic Medical Sciences of Chinese Academy of Medical Sciences. The mice were fasted for 12 hours before intragastric administration. The mice were randomly divided into 3 groups: (1) control group, 400 μl DEPC-treated water, intragastric administration; (2) free uptake group, small RNA (PGY-sRNA-26, PGY-sRNA-32 and PGY-sRNA-23), each small RNA 1 nmol/animal, dissolved in 400 μl DEPC-treated water, intragastric administration; (3) lipid No. 41 group: a mixture of small RNA (PGY-sRNA-26 and PGY-sRNA-32) and lipid No. 41 prepared by heating method was intragastrically administered, each small RNA 1 nmol/animal, lipid No. 41 10 μl/animal, dissolved in 400 μl DEPC-treated water. All tissue and organ samples were collected after 6 hours of intragastric administration. All small RNAs were single-stranded RNA modified by 3p-terminal 2-O-methylation.
After 12 hours, the sample was collected to detect the amount of entry. In Vivo Delivery Experiment of Lipid Nucleic Acid Mixture • 1. […] LightCycler 480 fluorescence quantitative PCR instrument was used, and the PCR reaction conditions were: 95° C., 5 min for pre-denaturation, followed by the PCR amplification cycle: (1) 95° C., 10 s; (2) 55° C., 10 s; (3) 72° C., 20 s; a total of 40 cycles; 40° C. for 10 s in the end to cool down. […]

[3] = test system: A549 cells; assay: Flow cytometry of green fluorescent protein delivered by lipid into A549 cells; type: cell-based, human; settings: 10 μg/mL lipid; reverse evaporation method; 6 hours
Description: (§2) Experimental method: The bencaosome was prepared by reverse evaporation of ether. 0.2 nmol green fluorescent protein dissolved in 20 μl water was added to 100 μl ether solutions containing 0 μg, 1 μg, 3 μg lipid respectively. After fully mixing, sonication was conducted for 3 min. After evaporation at 60° C. to remove organic solvent, the bencaosome solution was obtained by hydrating with 100 μL opti-MEM. Then the bencaosome was added to A549 cells and co-incubated for 6 hours. The samples were collected and tested. After washing three times with PBS, the samples were digested with trypsin for three minutes. The trypsin was removed, and then the samples were washed with PBS and blown off. Accuri® C6 instrument was used to measure.
as §2, with “method.” for “of ether.”, “The trypsin was removed, and then the samples were washed with PBS and blown off. Accuri® C6 instrument was used to measure.” left out

[4] = test system: fibronectin and α-SMA; assay: Fibronectin/α-SMA protein expression in TGF-β1-stimulated MRC-5 cells after small RNA delivered by lipid or bencaosome (Western blot); type: cell-based, human; settings: Examples 5 and 8; nucleic acid 400 nM; TGF-β1 3 ng/mL, 72 hours
[5] = test system: A549 cells; assay: RT-qPCR detection of nucleic acid delivered by lipid into A549 cells; type: cell-based, human; settings: HJT-sRNA-m7 double-stranded RNA, reverse evaporation method
[6] = test system: A549 cells; assay: Confocal fluorescence microscopy of green fluorescent protein delivered by lipid into A549 cells; type: cell-based, human; settings: reverse evaporation method; 6 hours
Description: Experimental method: The bencaosome was prepared by reverse evaporation method. 0.2 nmol green fluorescent protein dissolved in 20 μl water was added to 100 μl ether solutions containing 0 μg, 0.25 μg, 0.75 μg lipid respectively. After fully mixing, sonication was conducted for 3 min. After evaporated at 60° C. to remove organic solvent, the bencaosome solution was obtained by hydrating with 100 μL opti-MEM. Then the bencaosome was added to A549 cells and co-incubated for 6 hours. The samples were collected and tested. After washing three times with PBS, the samples were fixed with 4% paraformaldehyde. After washing three times with PBS, the samples were stained with Alexa Fluor® 488 phalloidin for 30 min. After washing three times with PBS, the samples were stained with Dapi for 5 min, then washed with PBS and sealed for observation.

[7] = test system: A549 cells; assay: Digital PCR (ddPCR) detection of nucleic acid delivery by lipid into A549 cells; type: cell-based, human; settings: single lipid; boiling or reverse evaporation method
Description: Referring to the QX200 Droplet Reader and QuantaSoft Software manual for the protocols, the results were analyzed using QuantaSoft software.
2.2 Experimental method: total RNA was collected and extracted by TRIzol lysis buffer according to the above method, and reverse transcribed to cDNA using High capacity cRNA Reverse Transcription Kit, and the cDNA from different groups was subjected to digital PCR reaction.
2.2 Experimental method: Total RNA was collected and extracted by TRIzol lysis buffer according to the above method, and reverse transcribed to cDNA using TaqMan™ MicroRNA Reverse Transcription KitHigh, and the cDNA from different groups was subjected to digital PCR reaction.
2.2 Experimental method: Total RNA was collected and extracted by TRIzol lysis buffer according to the above method, and reversed to cDNA using High capacity CRNA Reverse Transcription Kit, and the cDNA from different groups was subjected to digital PCR reaction.

CCCCCCCC/C=C\CCCCCCCCCCCC(=O)O[C@H](COC(=O)CCCCCCCCCCCCCCC)COP(=O)(O)OCCN [lipid No. 40, PE(16:0/22:1)]
entry of PGY-sRNA-6-Cy3 into A549 cells (confocal microscopy) [1]: could effectively deliver single-stranded RNA into A549 cells | delivery of sRNA single-stranded nucleic acid into mouse blood via oral administration [2]: the delivery effect was better than POPC and Lipofectamine RNAiMAX | efficiency to deliver green fluorescent protein into A549 cells [3]: 7.2% | inhibition by HJT small RNA at protein level in MRC-5 cells (Western blot) [4]: mediated anti-fibrotic double-stranded RNA HJT-sRNA-m7 entry into MRC-5 cells to down-regulate fibronectin protein expression | delivery effect of lipid compared with RNAiMAX (RT-qPCR) [5]: ½ | entry of green fluorescent protein into A549 cells (confocal microscope) [6]: could effectively deliver protein into A549 cells | delivery of HJT-sRNA-m7 dsRNA into A549 cells (ddPCR) [7]: could effectively deliver HJT-sRNA-m7 dsRNA into A549 cells
